The target of data set [1] is T1, acyl CoA:cholesterol acyltransferase (ACAT) (Rattus norvegicus, UniProt Q7TQM4).
T1 construct: microsomal enzyme (10 mg/ml of protein) derived from rat liver tissue; from tissue; host or cells: rat liver microsomes
T1 sequence (Q7TQM4 1-524): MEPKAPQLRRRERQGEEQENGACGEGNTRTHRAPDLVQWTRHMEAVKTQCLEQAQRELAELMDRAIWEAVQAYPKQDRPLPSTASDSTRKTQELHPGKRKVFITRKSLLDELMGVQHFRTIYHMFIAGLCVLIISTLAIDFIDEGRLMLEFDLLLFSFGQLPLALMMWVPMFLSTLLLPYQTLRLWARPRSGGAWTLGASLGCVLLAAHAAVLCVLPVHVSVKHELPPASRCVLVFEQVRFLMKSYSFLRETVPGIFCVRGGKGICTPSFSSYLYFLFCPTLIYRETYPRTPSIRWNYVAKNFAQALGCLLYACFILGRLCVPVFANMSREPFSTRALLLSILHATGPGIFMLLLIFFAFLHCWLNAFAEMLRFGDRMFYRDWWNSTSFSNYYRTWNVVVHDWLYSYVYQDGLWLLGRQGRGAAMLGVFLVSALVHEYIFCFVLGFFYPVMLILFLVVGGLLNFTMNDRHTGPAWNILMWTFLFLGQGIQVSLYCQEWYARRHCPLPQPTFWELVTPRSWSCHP
Nature of the data set: ACAT inhibiting activity (modified method of Tabas et al.; [1-14C] oleoyl-CoA, rat liver microsomal enzyme). It is filed as biochemical. To be noted: 10 μM [1-14C] oleoyl-CoA, pH 7.4, 37° C., 15 minutes, read-out: IC50 (inhibitor concentration which reduces the activity of ACAT by 50%). On the procedure:
ACAT activity was determined as follows in accordance with a modified method of Tabas et al. described in J. Biol. Chem., 261, 3147-3154 (1986).
10 μl of sample, 4.0 μl of microsomal enzyme (10 mg/ml of protein) derived from rat liver tissue, 20 μl of analysis buffer(0.5M KH2 PO4, 10 mM dithiothreitol (DTT), pH 7.4), 15 μl of 40 mg/ml bovine serum albumin(essentially free of fatty acids), 2 μl of 20 mg/ml cholesterol and 41 μl of H2 O were mixed together and the resulting mixture was reacted at 37° C. for 15 minutes. 8 μl of [1-^14 C] oleoyl-CoA(0.05 μCi, final concentration of 10 μM) was added to the mixture and the reaction mixture was reacted at 37° C. for 15 minutes.
1 ml of isopropanol-heptane (4:1(v/v)) was added to the mixture to stop the reaction, 0.6 ml of heptane and 0.4 ml of said analysis buffer(5-fold diluted) were added thereto and the resulting mixture was centrifuged at 2,000 g for 2 minutes to obtain the supernatant.
5 ml of scintillation cocktail lipoluma (Lumac Co., U.S.A.) was added to 100 μl of the supernatant obtained above and enzyme activity was determined by detecting the amount of cholesteryl ester in the mixture based on the unit of count per minute (CPM) by using a liquid scintillation counter.
ACAT inhibiting activity was calculated in accordance with the following equation: [formula] wherein the blank composition had the same composition as the above sample but without enzyme and GERI-BP001 or its derivatives, and was reacted at 37° C.; and the control had the same composition as the above sample without GERI-BP001 or its derivatives and was reacted at 37° C. for 15 min.

A further data set relates to female ICR mice. Kind of data set: Toxicity of GERI-BP001 in mice (subcutaneous injection). The class given is in vivo, mouse. To be noted: 500 mg/kg. On the procedure:
5 female ICR mice weighing 23 g were administered via subcutaneous injection with 500 mg/kg of GERI-BP001.

The subject of another data set is rats. Nature of the data set: Acute toxic effect in rats. To be noted: dose and route not stated. It is filed as in vivo, rat.
Data set [2] in a line: Solubility (physicochemical properties).

Structures are written as SMILES.

Take `CC(=O)O[C@H]1CC[C@]2(C)[C@H]3C(O)c4c(cc(-c5cccnc5)oc4=O)O[C@]3(C)CC[C@H]2C1(C)C` (stereo partly shown) [GERI-BP001-A]: in data set [1], the IC50 was in the range of 140 to 150 µM.
The same measure, in the same setting: the result for `CCC(=O)O[C@H]1CC[C@]2(C)[C@H]3Cc4c(cc(-c5cccnc5)oc4=O)O[C@]3(C)CC[C@H]2C1(C)C` [GERI-BP001-B] reads 70 to 80 µM; that for `CC(=O)O[C@H]1CC[C@]2(C)[C@H]3Cc4c(cc(-c5ccc[n+]([O-])c5)oc4=O)O[C@]3(C)CC[C@H]2C1(C)C` [GERI-BP001-C], 110 to 120 µM.
Take `CC(=O)O[C@H]1CC[C@]2(C)[C@H]3Cc4c(cc(-c5cccnc5)oc4=O)O[C@]3(C)CC[C@H]2C1(C)C` [GERI-BP001]: the IC50 in data set [1] was 70 to 80 µM. Moreover, the “acute toxicity (judgement)” value in the data set on female ICR mice (female ICR mice, subcutaneous injection) is given as “does not cause acute toxicity”. The mortality result with female ICR mice (female ICR mice, subcutaneous injection, until 4 days after administration) is reported as “none of the mice was dead”. Besides, in the data set on female ICR mice (mouse, in vivo, sc), the activities of mice result was “increased”, the excited state entry is “an excited state was induced”, the “time after administration at which excited state was induced” value is “about 15 minutes” and the “time after administration at which symptoms disappeared” value is on record as “about 2 hours”. Further, the acute toxic effect result in the data set with rats is “acute toxic effect was not found”. Moreover, the Solubility entry in data set [2] (MeOH, CHCl3) is reported as “soluble”. Besides, in data set [2] (n-hexane, H2O), the Solubility entry is given as “insoluble”.
